Data published in patent US20070184018A1, “Anthranilamide insecticides” (priority 2004, published 2007).

Tested on: corn planthopper (Peregrinus maidis)
Assay: Test F: control of corn planthopper through contact and/or systemic means on corn (maize) plant
Assay type: in vivo
Settings: sprayed at 250 ppm, nymphs, 6 days, visually assessed
Procedure: Test compounds were formulated using a solution containing 10% acetone, 90% water and 300 ppm X-77™ Spreader Lo-Foam Formula non-ionic surfactant containing alkylarylpolyoxyethylene, free fatty acids, glycols and isopropanol (Loveland Industries, Inc.). The formulated compounds were applied in 1 mL of liquid through a SUJ2 atomizer nozzle with ⅛ JJ custom body (Spraying Systems Co.) positioned 1.27 cm (0.5 inches) above the top of each test unit. All experimental compounds in this screen were sprayed at 250 ppm, replicated three times. After spraying of the formulated test compound, each test unit was allowed to dry for 1 hour and then a black, screened cap was placed on top. The test units were held for 6 days in a growth chamber at 19-21° C. and 50-70% relative humidity. Each test unit was then visually assessed for insect mortality.
For evaluating control of corn planthopper (Peregrinus maidis) through contact and/or systemic means, the test unit consisted of a small open container with a 3-4 day old corn (maize) plant (spike) inside. White sand was added to the top of the soil prior to application. Test compounds were formulated and sprayed at 250 ppm and replicated three times as described for Test C. […] Each test unit was then visually assessed for insect mortality.

Q: For `Cc1cc(C#N)cc(C(N)=O)c1NC(=O)c1cc(Br)nn1-c1ccccc1Cl` [Compound 67], which mortality is on record?
A: Its mortality is “at least 80%”.
